# Source: patent US10912815B2, “Inhibitors of mitochondrial fission and methods of use thereof” (The Board of Trustees of the Leland Stanford Junior …, priority 2011, dated 2021)
# “Also recorded” adds a separate entry of the source. No end group written: not given here.
# How the values were obtained:
# [1] = test system: SH-SY5Y cells; assay: Mitochondrial superoxide production in SH-SY5Y cells (MITOSOX red); format: cell-based, human; conditions: peptide 1 μM, MPP+ 2 mM 2 hrs, FIG. 6A, FIG. 7
# Experimental: (§1) The effects of MPP+ or CCCP on translocation of Drp1 in the absence and presence of P110 was measured using confocal microscopy. Cultured SH-SY5Y cells in black 96-well plate were treated with Drp1 peptide inhibitor P110 (1 μM) 30 min prior to treatment of MPP+ (2 mM) or CCCP (5 uM). After 2 hrs of treatment, cells were stained with MITOSOX™ (red mitochondrial superoxide indicator) (5 uM, for 10 min, mitochondrial ROS) or TMRM (0.5 uM, for 20 min, MMP) at 37° C. For total ROS detection, cells were treated with MPP+ or CCCP for 24 hrs. ROS level was measured by CM-H2DCFDA (1 μM for 30 min, Invitrogen). Cells were washed with PBS for three times. The detection was performed in a fluorescence microplate reader (Tecan, Infinite M1000) according to manufacturer's instructions. Measurements were normalized to the cell number counted using Hoechst staining.
# SH-SY5Y cells were treated with P110 (1 μM) followed by incubation of MPP+ (2 mM) for 2 hrs. Mitochondrial superoxide production was determined using the mitochondrial superoxide indicator, MITOSOX™ red (red mitochondrial superoxide indicator). Nuclei were stained with Hoechst (blue). This experiment included the analysis of P110 alanine-scan analogs, further determine the contribution of each of the amino acids of the P110 fission inhibitor peptide sequence on the bioactivity of the peptide.
# [2] = test system: SH-SY5Y cells; assay: Mitochondrial membrane potential in SH-SY5Y cells (TMRM); format: cell-based, human; conditions: SH-SY5Y in the presence of MPP+ or CCCP, FIG. 6B
# Experimental: as §1
# Mitochondrial membrane potential was also determined using TMRM (tetramethylrhodamine methylester). […] Fluoresence detection was performed using black 96-well plates in a fluorescence microplate reader at 560 nm excitation and 690 nm emission and potential was assessed by quenching of the fluorescent signal. […] A kinetic change of mitochondrial superoxide production was determined by using MITOSOX™ (red mitochondrial superoxide indicator). […]
# [3] = test system: SH-SY5Y cells; assay: Mitochondrial morphology/fragmentation in SH-SY5Y cells (TOM20 staining); format: cell-based, human; conditions: for percentage of cells with fragmented mitochondria: P110 1 μM 30 min, FIG. 5
# Experimental: To determine effects of P110 on mitochondrial morphology in response to mitochondrial stresses, an immuno-staining approach was used. In one experiment, SH-SY5Y neuronal cells were treated with Drp1 peptides or Drp1 siRNA followed by treatment of MPP+. The cells were then stained with TOM20 and Hoechst stain.
# In another experiment, cultured SH-SY5Y cells were treated with P110 (1 μM) for 30 min followed by incubation with MPP+(2 mM, 4 hrs) or CCCP (5 uM, 30 min). The cells were then stained with anti-Tom 20 antibody (green) and Hoechst stain (scale bar 0.5 μm). Mitochondrial morphology was analyzed using 63× oil lens. The data were analyzed and are presented as a histogram in which the percentage of cells with fragmented mitochondria relative to the total number of cells is presented as the mean±S.E. of 3 independent experiments. At least 200 cells per group were counted.
# [4] = test system: Primary rat dopaminergic neurons; assay: Neurite loss of primary dopaminergic neurons exposed to MPP+ (TH staining); format: cell-based; conditions: P110 1 μM, MPP+ 1 μM, FIG. 10C
# Experimental: Primary rat dopaminergic neurons (cultured for 6 days) were treated without or with P110 (1 μM) followed by treatment with or without MPP+(1 μM). Two hrs following MPP+ treatment, the cells were stained with MITOSOX™ red (to measure mitochondrial superoxide production) and anti-TH antibody (a marker of dopaminergic neurons). Fifteen hrs after MPP+ treatment, cells were stained with anti-TH antibody and anti-Tom20 antibody (a marker of mitochondria).
# [5] = test system: SH-SY5Y cells; assay: Apoptosis of SH-SY5Y cells by annexin V staining; format: cell-based, human; conditions: 8 hours after MPP+ exposure, FIG. 9B
# Experimental: Apoptosis was determined by annexin V staining 8 hours after MPP+ exposure. The number of apoptotic cells was expressed as mean±S.E. of percentage relative to total number of cells.
# [6] = biological target: Drp1/Fis1 interaction (Homo sapiens, UniProt O00429); assay: Drp1-Fis1 interaction in cultured SH-SY5Y neuronal cells (crosslink, immunoprecipitation); format: cell-based; design: endogenous in cells; host or cells: SH-SY5Y; conditions: peptides 1 μM, FIG. 2E
# Chain of Drp1/Fis1 interaction (O00429 whole entry): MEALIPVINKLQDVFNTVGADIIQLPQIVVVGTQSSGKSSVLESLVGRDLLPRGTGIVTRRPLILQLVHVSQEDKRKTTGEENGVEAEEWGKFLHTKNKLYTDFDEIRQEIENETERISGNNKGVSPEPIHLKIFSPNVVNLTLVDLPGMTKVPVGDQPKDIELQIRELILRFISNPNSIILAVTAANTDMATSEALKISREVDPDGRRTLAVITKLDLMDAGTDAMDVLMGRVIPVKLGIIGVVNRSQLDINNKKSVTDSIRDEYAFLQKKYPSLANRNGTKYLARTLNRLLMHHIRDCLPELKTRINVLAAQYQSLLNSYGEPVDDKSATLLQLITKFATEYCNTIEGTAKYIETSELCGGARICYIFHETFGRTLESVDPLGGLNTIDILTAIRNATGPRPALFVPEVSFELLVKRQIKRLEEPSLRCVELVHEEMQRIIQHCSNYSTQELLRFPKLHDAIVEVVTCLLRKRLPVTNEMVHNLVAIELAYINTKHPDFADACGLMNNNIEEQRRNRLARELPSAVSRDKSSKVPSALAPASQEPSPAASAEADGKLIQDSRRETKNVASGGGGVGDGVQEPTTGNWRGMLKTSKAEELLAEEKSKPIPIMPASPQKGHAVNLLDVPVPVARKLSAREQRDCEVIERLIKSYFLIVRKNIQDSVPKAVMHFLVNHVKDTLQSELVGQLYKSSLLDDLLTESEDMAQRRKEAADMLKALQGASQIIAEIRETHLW
# Experimental: SH-SY5Y cells were treated with Drp1 peptides P110, P109, P112 or TAT47-57 only (1 μM). Because the interaction between Drp1 and Fis1 is transient and dynamic, cells were treated with the crosslinker, DSP, (0.75 mM for 30 min), as described in a previous study (Yoon et al., 2003, Mol Cell Biol 23:5409-5420). The cells were lysed in total cell lystes (50 mM Tris-HCl, pH 7.5, containing 150 mM NaCl, 1% Triton X-100, and protease inhibitor). Immunoprecipitates were analyzed by SDS-PAGE and immunoblotting with antibodies to Drp1, VDAC, and Fis1. VDAC was used as a loading control
# [7] = test system: isolated mouse liver mitochondria with Drp1 recombinant protein; assay: Membrane potential of isolated mouse liver mitochondria incubated with Drp1 (TMRM); format: biochemical; conditions: P110 1 μM, NAC 2.5 mM, FIG. 6D bottom
# Experimental: Mitochondrial membrane potential was also determined using TMRM (tetramethylrhodamine methylester). Fifty μg of mitochondria were incubated with recombinant Drp1 (50 ng) followed by incubation with TMRM (0.5 μM) in the presence or absence of P110 (1 μM) or NAC (2.5 mM). Fluoresence detection was performed using black 96-well plates in a fluorescence microplate reader at 560 nm excitation and 690 nm emission and potential was assessed by quenching of the fluorescent signal. The data are presented as mean±S.E. of percentage relative to control mitochondria from three independent experiments (FIG. 6B, #, p<0.05 vs. control cells; *, p<0.05; **, P<0.01 vs. MPP+- or CCCP-treated cells). Isolated mouse liver mitochondria (50 μg) were incubated with Drp1 recombinant protein (50 ng) in the presence or absence of P110 (1 μM). A kinetic change of mitochondrial superoxide production was determined by using MITOSOX™ (red mitochondrial superoxide indicator). The data are presented as mean±S.E. of percentage relative to the value at basal level from three independent experiments (FIG. 6C, #, p<0.05 vs. control mitochondria; *, p<0.05 vs. mitochondria with the addition of Drp1). Mitochondrial membrane potential of isolated mouse liver mitochondria was determined by TMRM, as described above, in the indicated groups. NAC (2.5 mM) was used as a positive control (FIG. 6D). Protein levels of cytochrome c in the mitochondria were determined by western blot analysis with anti-cytochrome c antibodies in the indicated groups (insert, FIG. 6D). Total ROS production was determined by staining SH-SY5Y cells with CM2HDCFA (1 μM […] at 37° C.) in the indicated groups. The data are presented as mean±S.E. of percentage relative to control group from three independent experiments (FIG. 6E, *, p<0.05 vs. either MPP+ or CCCP treated-group; #, p<0.05 vs. control group).
# The mitochondrial membrane potential of isolated mouse liver mitochondria was then measured in the presence or absence of P110.
sequence,measurement,setting,value
"RRRQRRKKRGYGGDLLPRGS (RRRQRRKKRGYGGDLLPRGS-NH2) [P110, TAT47-57 carrier, GG linker, Drp1 region 110 (GTPase domain) peptide DLLPRGS; C-terminus C(O)-NH2]",MPP+-induced production of mitochondrial superoxide,[1],abolished
same,mitochondrial membrane potential (MMP),[2],significantly recovered
same,percentage of cells with fragmented mitochondria,"[3]; then CCCP 5 uM 30 min, 63% without P110",23%
same,percentage of cells with fragmented mitochondria,"[3]; then MPP+ 2 mM 4 hrs, 50% without P110",14%
same,reduction of mitochondrial fragmentation in cells exposed to MPP+,"[3]; SH-SY5Y, MPP+, p<0.01, n=3, FIG. 4A, 4B",70%
same,mitochondrial morphology/network in control (non-stressed) cells,"[3]; SH-SY5Y, no stressor",minimal effects; also recorded: no effect; also recorded: did not observe dramatic difference
same,neurite loss of dopaminergic neurons (TH),[4],reduced neurite loss
same,number of apoptotic cells (annexin V),[5],greatly reduced
same,Drp1-Fis1 interaction in cultured SH-SY5Y neuronal cells,[6],inhibited interaction of Drp1 and Fis1; also recorded: Inhibition
same,mitochondrial membrane potential (MMP) of isolated mitochondria after Drp1 addition,[7],improved the MMP
